According to US5753648A, “Tricyclic benzazepine vasopressin antagonists” (American Cyanamid Company, priority 1996, dated 1998):
Counter-ions that a name gives are not always drawn.

Tests used:
[1] = molecular target: T1, Rat Kidney Medullary V2 Receptors (Rattus norvegicus, UniProt Q00788); experiment: biochemical; type: binding
T1 construct: Medullary tissues from rat kidneys are dissected out; from tissue; host or cells: rat kidney medulla membranes
Procedure: Binding Assay to Rat Kidney Medullary V2 Receptors
Medullary tissues from rat kidneys are dissected out, cut into small pieces and soaked in a […] sodium chloride solution containing 1.0 mM EDTA with many changes of the liquid phase, until the solution is clear of blood. The tissue is homogenized in a 0.25M sucrose solution containing 1.0 mM EDTA and 0.1 mM PMSF using a Potter-Elvehjem homogenizer with a teflon pestle. The homogenate is filtered through several layers (4 layers) of cheese cloth. The filtrate is rehomogenized using a dounce homogenizer, with a tight fitting pestle. The final homogenate is centrifuged at 1500×g for 15 min. The nuclear pellet is discarded and the supernatant fluid recentrifuged at 40,000×g for 30 min. The resulting pellet formed contains a dark inner part with the exterior, slightly pink. The pink outer part is suspended in a small amount of 50.0 mM Tris.HCl buffer, pH 7.4. The protein content is determined by the Lowry's method (Lowry et al, J. Biol. Chem., 1953). The membrane suspension is stored at -70° C., in 50.0 mM Tris.HCl, containing 0.2% inactivated BSA and 0.1 mM PMSF in aliquots of 1.0 ml containing 10.0 mg protein per ml of suspension until use in subsequent binding experiments.
For binding experiments, the following is added in μl volume to wells of a 96 well format of a microtiter plate: 100.0 μl of 100.0 mM Tris.HCl buffer containing 0.2% heat inactivated BSA, 10.0 mM MgCl2 and a mixture of protease inhibitors: leupeptin, 1.0 mg %; aprotinin, 1.0 mg %; 1,10-phenanthroline, 2.0 mg %; trypsin inhibitor, 10.0 mg % and 0.1 mM PMSF, 20.0 μl of [^3 H] Arginine^8, vasopressin (S.A. 75.0 Ci/mmole) at 0.8 nM and the reaction initiated by the addition of 80.0 μl of tissue membranes (200.0 μg tissue protein). The plates are left undisturbed on the bench top for 120 min. to reach equilibrium. Non-specific binding is assessed in the presence of 1.0 μM of unlabeled ligand, added in 20 μl volume. For test compounds, these are solubilized in 50% dimethylsulfoxide (DMSO) and added in 20.0 μl volume to a final incubation volume of 200 μl. Upon completion of binding, the content of each well is filtered off, using a Brandel® cell Harvester (Gaithersburg, Md.). The radioactivity trapped on the filter disk by the ligand-receptor complex is assessed by liquid scintillation counting in a Packard LS Counter, with an efficiency of 65% for tritium. The data are analyzed for IC50 values by the LUNDON-2 program for competition (LUNDON SOFTWARE, Ohio).

[2] = molecular target: T2, oxytocin receptors (Rattus norvegicus, UniProt P70536); experiment: Oxytocin Receptor Binding; conditions: for IC50: rat uterine membranes, [3H]oxytocin
T2 sequence (P70536 1-388): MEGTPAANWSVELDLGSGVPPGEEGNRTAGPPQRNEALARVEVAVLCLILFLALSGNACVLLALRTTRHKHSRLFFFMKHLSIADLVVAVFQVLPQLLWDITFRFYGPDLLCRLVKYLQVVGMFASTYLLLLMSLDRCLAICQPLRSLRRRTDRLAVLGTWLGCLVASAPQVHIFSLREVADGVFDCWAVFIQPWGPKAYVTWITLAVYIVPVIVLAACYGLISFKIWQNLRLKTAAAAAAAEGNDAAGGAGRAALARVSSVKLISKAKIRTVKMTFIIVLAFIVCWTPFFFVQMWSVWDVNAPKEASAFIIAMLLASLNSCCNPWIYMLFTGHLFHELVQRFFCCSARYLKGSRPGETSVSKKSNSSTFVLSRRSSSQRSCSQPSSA
Procedure: Female Sprague-Dawley rats weighing approximately 200-250 g are injected intramuscularly (i.m.) with 0.3 mg/kg of body weight of diethylstilbestrol (DES). The rats are sacrificed 18 hours later under pentobarbital anesthesia. The uteri are dissected out, cleaned of fat and connective tissues and rinsed in 50 ml of normal saline. The tissue pooled from six rats is homogenized in 50 ml of 0.01 mM Tris.HCl, containing 0.5 mM dithiothreitol and 1.0 mM EDTA, adjusted to pH 7.4, using a polytron at setting 6 with three passes of 10 sec each. The homogenate is passed through two (2) layers of cheesecloth and the filtrate centrifuged at 1000×g for 10 min. The clear supernatant is removed and recentrifuged at 165,000×g for 30 min. The resulting pellet containing the oxytocin receptors is resuspended in 50.0 mM Tris.HCl containing 5.0 mM MgCl2 at pH 7.4, to give a protein concentration of 2.5 mg/ml of tissue suspension. This preparation is used in subsequent binding assays with [^3 H]Oxytocin.
Binding of 3,5-[^3 H]Oxytocin ([^3 H]OT) to its receptors is done in microtiter plates using [^3 H]OT, at various concentrations, in an assay buffer of 50.0 mM Tris.HCl, pH 7.4 and containing 5.0 mM MgCl2, and a mixture of protease inhibitors: BSA, 0.1 mg; aprotinin, 1.0 mg; 1,10-phenanthroline, 2.0 mg; trypsin, 10.0 mg; and PMSF, 0.3 mg per 100 ml of buffer solution. Non-specific binding is determined in the presence of 1.0 uM unlabeled OT. The binding reaction is terminated after 60 min., at 220° C., by rapid filtration through glass fiber filters using a Brandel® cell harvester (Bio-medical Research and Development Laboratories, Inc., Gaithersburg, Md.). Competition experiments are conducted at equilibrium using 1.0 nM [^3 H]OT and varying the concentration of the displacing agents. The concentrations of agent displacing 50% of [^3 H]OT at its sites (IC50) are calculated by a computer assisted LUNDON-2 program (LUNDON SOFTWARE INC., Ohio, USA).

[3] = molecular target: Rat Hepatic V1 Receptors (Rattus norvegicus, UniProt P30560); experiment: Binding Assay to Rat Hepatic V1 Receptors
Rat Hepatic V1 Receptors, sequence (P30560 whole entry): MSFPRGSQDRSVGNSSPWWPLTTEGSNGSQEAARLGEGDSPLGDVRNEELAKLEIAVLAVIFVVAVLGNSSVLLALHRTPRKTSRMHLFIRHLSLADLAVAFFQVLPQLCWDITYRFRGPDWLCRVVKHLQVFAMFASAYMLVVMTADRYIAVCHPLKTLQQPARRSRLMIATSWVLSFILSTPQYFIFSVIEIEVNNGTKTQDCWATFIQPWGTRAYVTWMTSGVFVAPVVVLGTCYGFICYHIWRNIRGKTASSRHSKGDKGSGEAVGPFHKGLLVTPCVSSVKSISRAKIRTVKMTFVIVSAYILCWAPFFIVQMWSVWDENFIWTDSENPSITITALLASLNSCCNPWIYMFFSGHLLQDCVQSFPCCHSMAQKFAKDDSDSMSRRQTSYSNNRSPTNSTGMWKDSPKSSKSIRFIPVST
Procedure: Binding Assay to Rat Hepatic V1 Receptors
Rat liver plasma membranes expressing the vasopressin V1 receptor subtypes are isolated by sucrose density gradient according to the method described by Lesko et al, (1973). These membranes are quickly suspended in 50.0 mM Tris.HCl buffer, pH 7.4, containing 0.2% bovine serum albumin (BSA) and 0.1 mM phenylmethylsulfonylfluoride (PMSF) and kept frozen at -70° C. until used in subsequent binding experiments. For binding experiments, the following is added to the wells of a ninety-six well format microtiter plate: 100 μl of 100.0 mM Tris.HCl buffer containing 10.0 mM MgCl2, 0.2% heat inactivated BSA and a mixture of protease inhibitors: leupeptin, 1.0 mg %; aprotinin, 1.0 mg %; 1,10-phenanthroline,2.0 mg %; trypsin inhibitor, 10.0 mg % and 0.1 mM PMSF, 20.0 μl of [phenylalanyl-3,4,5,-^3 H] vaso-pressin (S.A. 45.1 Ci/mmole) at 0.8 nM, and the reaction initiated by the addition of 80 μl of tissue membranes containing 20 μg of tissue protein. The plates are kept undisturbed on the bench top at room temperature for 120 min. to reach equilibrium. Non-specific samples are assayed in the presence of 0.1 μm of the unlabeled antagonist phenylalanylvasopressin, added in 20.0 μl volume. For test compounds, these are solubilized in 50% dimethylsulfoxide (DMSO) and added in 20.0 μl volume to a final incubation volume of 200 μl. Upon completion of binding, the content of each well is filtered off, using a Brandel® cell Harvester (Gaithersburg, Md.). The radioactivity trapped on the filter disk by the ligand-receptor complex is assessed by liquid scintillation counting in a Packard LS Counter, with an efficiency of 65% for tritium. The data are analyzed for IC50 values by the LUNDON-2 program for competition (LUNDON SOFTWARE, Ohio).

T1 sequence (Q00788 whole entry): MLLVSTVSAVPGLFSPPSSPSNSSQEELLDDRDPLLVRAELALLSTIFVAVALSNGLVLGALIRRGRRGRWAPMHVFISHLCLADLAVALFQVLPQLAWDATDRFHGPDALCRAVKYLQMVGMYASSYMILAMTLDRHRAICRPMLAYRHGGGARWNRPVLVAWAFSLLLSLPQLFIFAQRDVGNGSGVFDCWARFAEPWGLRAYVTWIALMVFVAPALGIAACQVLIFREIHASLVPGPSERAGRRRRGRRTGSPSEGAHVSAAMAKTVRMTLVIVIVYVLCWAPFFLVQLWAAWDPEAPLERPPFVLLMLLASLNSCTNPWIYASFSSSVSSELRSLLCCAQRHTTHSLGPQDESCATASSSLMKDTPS

| IC50 [1] [nM] | inhibition at 1 µM [2] [%] | IC50 [2] [nM] | IC50 [3] [nM] | inhibition at 10 µM [2] [%] | inhibition at 2.5 µM ([2]; dose 2.5 μM) [%] | SMILES |
| --- | --- | --- | --- | --- | --- | --- |
| 1.8 | 90 | 140 | 11 |  |  | O=C(Nc1ccc(C(=O)N2Cc3cccn3Cc3ccccc32)cn1)c1ccccc1Cl [Example 6] |
| 1.6 | 89 | 150 | 7 |  |  | O=C(Nc1ccc(C(=O)N2Cc3cccn3Cc3ccccc32)cn1)c1ccccc1Br [Example 8] |
| 24 |  | 800 | 210 | 98 |  | Cc1ccccc1C(=O)Nc1ncc(C(=O)N2Cc3cccn3Cc3ccccc32)cc1Br [Example 12] |
| 30 |  | 510 | 450 | 95 |  | O=C(Nc1ccc(C(=O)N2Cc3cccn3Cc3ccccc32)cn1)c1ccc([N+](=O)[O-])cc1Cl [Example 33] |
| 11 |  | 730 | 87 | 95 |  | Cc1ccc(F)cc1C(=O)Nc1ccc(C(=O)N2Cc3ccnn3Cc3ccccc32)cn1 [Example 208, N-[5-(4H-Pyrazolo[5,1-c][1,4]benzodiazepin-5(10H)-ylcarbonyl)-2-pyridinyl]-5-fluoro-2-methylbenzamide] |
| 1 |  |  | 19 |  |  | O=C(Nc1ccc(C(=O)N2Cc3ccnn3Cc3ccccc32)cn1)c1ccccc1-c1ccccc1 [Example 245] |
| 360 |  | 380 | 200 | 98 |  | O=C(c1ccc(NCC2CCCCC2)nc1)N1Cc2cccn2Cc2ccccc21 [Example 263] |
| 82 |  | 56 | 190 |  | 95 | O=C(c1ccc(NCc2ccccc2)nc1)N1Cc2cccn2Cc2ccccc21 [Example 273, 10[[6-[(Phenylmethyl)amino]-3-pyridinyl]carbonyl]-10,11-dihydro-5H-pyrrolo[2,1-c][1,4]benzodiazepine] |
| 1.5 |  |  | 16 |  |  | O=C(Nc1ccc(C(=O)N2Cc3cccn3Cc3ccccc32)c(Cl)c1)c1ccccc1-c1ccccc1 [Example 319, N-[4-(5H-Pyrrolo[2,1-c][1,4]benzodiazepin-10(11H)-ylcarbonyl)-3-chlorophenyl][1,1'-biphenyl]-2-carboxamide] |
| 2.6 |  |  | 3.4 |  |  | O=C(Nc1ccc(C(=O)N2Cc3cccn3Cc3ccccc32)cc1)c1ccccc1-c1ccccc1 [Example 320, N-[4-(5H-Pyrrolo[2,1-c][1,4]benzodiazepin-10(11H)-ylcarbonyl)phenyl][1,1'-biphenyl]-2-carboxamide] |
| 5.1 |  |  | 18 |  |  | O=C(Nc1ccc(C(=O)N2Cc3cccn3Cc3ccccc32)cc1)c1ccccc1Cc1ccccc1 [Example 321, N-[4-(5H-Pyrrolo[2,1-c][1,4]benzodiazepine-10(11H)-ylcarbonyl)phenyl]-2-(phenylmethyl)benzamide] |
| 11 |  |  | 670 |  |  | O=C(Nc1ccc(C(=O)N2Cc3cccn3Cc3ccccc32)c(Cl)c1)c1ccccc1Cc1ccccc1 [Example 322, N-[4-(5H-Pyrrolo[2,1-c][1,4]benzodiazenin-10(11H)-ylcarbonyl)-3-chlorophenyl]-2-(phenylmethyl)benzamide] |
| 120 | 45 |  | 420 |  |  | O=C(Nc1ccc(C(=O)N2Cc3cccn3Cc3ccccc32)cc1)c1ccccc1-c1ccc(C(F)(F)F)cc1 [Example 324] |
| 28 | 56 |  | 350 |  |  | Cc1ncccc1C(=O)Nc1ccc(C(=O)N2Cc3cccn3Cc3ccccc32)cc1 [Example 327, N-[4-(5H-Pyrrolo[2,1-c][1,4]benzodiazepin-10(11H)-ylcarbonyl)phenyl]-2-methylpyridine-3-carboxamide] |
| 19 |  | 570 | 3300 | 85 |  | Cc1ncccc1C(=O)Nc1ccc(C(=O)N2Cc3cccn3Cc3ccccc32)c(Cl)c1 [Example 328, N-[4-(5H-Pyrrolo[2,1-c][1,4]benzodiazepin-10(11H)-yl-carbonyl)-3-chlorophenyl]-2-methyl-pyridine-3-carboxamide] |
| 70 |  | 190 | 310 | 91 |  | Cc1ncccc1C(=O)Nc1ccc(C(=O)N2Cc3cccn3Cc3ccccc32)cn1 [Example 329, N-[5-(5H-Pyrrolo[2,1-c][1,4]benzodiazepin-10(11H)-ylcarbonyl]-2-pyridinyl]-2-methylpyridine-3-carboxamide] |
| 410 |  | 880 | 250 | 98 |  | O=C(Nc1ccc(C(=O)N2Cc3cccn3Cc3ccccc32)cc1)c1cccnc1Cl [Example 333, N-[4-(5H-Pyrrolo[2,1-c][1,4]benzodiazepin-10(11H)-ylcarbonyl)phenyl]-2-chloropyridine-3-carboxamide] |
| 650 | 16 |  | 1300 |  |  | CN1CCN(c2ncccc2C(=O)Nc2ccc(C(=O)N3Cc4cccn4Cc4ccccc43)cc2)CC1 [Example 337, N-[4-(5H-pyrrolo[2,1-c][1,4]benzodiazepin-10(11H)-ylcarbonyl)phenyl]-2-(4-methyl-1-piperazinyl)-pyridine-3-carboxamide] |
| 4 | 74 |  | 20 |  |  | O=C(Nc1ccc(C(=O)N2Cc3cccn3Cc3ccccc32)cc1)c1ccccc1-c1ccccn1 [Example 341, N-[4-(5H-Pyrrolo[2,1-c][1,4]benzodiazepin-10(11H)-ylcarbonyl)phenyl]-2-(2-pyridinyl)benzamide] |

| SMILES | IC50 [1] [nM] | inhibition at 1 µM [2] [%] | IC50 [2] [nM] | IC50 [3] [nM] | inhibition at 10 µM [2] [%] | inhibition at 2.5 µM ([2]; dose 2.5 μM) [%] |
| --- | --- | --- | --- | --- | --- | --- |
| CN(C)c1ncccc1C(=O)Nc1ccc(C(=O)N2Cc3cccn3Cc3ccccc32)cc1 [Example 332, N-[4-(5H-Pyrrolo[2,1-c][1,4]benzodiazepin-10(11H)-ylcarbonyl)phenyl]-2-(dimethylamino)-pyridine-3-carboxamide Hydrochloride] | 3.4 |  | 830 | 31 |  |  |
| CN(C)c1ncccc1C(=O)Nc1ccc(C(=O)N2Cc3cccn3Cc3ccccc32)cc1 [Example 338, N-[4-(5H-Pyrrolo[2,1-c][1,4]benzodiazepin-10(11H)-ylcarbonyl)phenyl]-2-(dimethylamino)-pyridine-3-carboxamide] | 4.8 |  | 720 | 37 | 98 |  |
